Converted amounts (≈) assume the structure as drawn.
Key:
[1] = tested on: S. haemolyticus 05 (Meth^R); assay: Broth microdilution MIC (NCCLS); format: cell-based; details: Staphylococcus haemolyticus
Procedure: (§1) Compounds were evaluated for antimicrobial activity against a panel of bacterial strains using a broth microdilution assay performed as recommended by the NCCLS (1). The minimum inhibitory concentration (MIC) was defined as the lowest concentration of drug which prevented the growth of the bacteria.
(§2) For this primary panel, the assay was performed in Mueller-Hinton Broth (MHB) with a final bacterial inoculum of 5×10^5 CFU/mL (from an early-log phase culture) and a final volume of 100 μL. Control drugs, including imipenem, vancomycin, Penicillin G, dicloxacillin (vs. MSSA ATCC29213 only), and new compounds were prepared at a concentration equivalent to 2-fold the desired final concentration. Dilution of compounds were prepared directly in the plates by serial 2-fold dilution using a multichannel pipette. Positive and negative growth control were included in each plate.
(§3) The bacterial inocula were prepared as follows. For each strain one isolated colony was used to inoculate a volume of 8 mL of Mueller-Hinton broth and these cultures were incubated overnight (20 h) at 35° C. in a shaking incubator. At the exception of Enterococcus strains, culture were then diluted 1:10 and allowed to grow for an additional one hour at 35° C. in a shaking incubator. The inocula were prepared by diluting the early log-phase (1 h) cultures 1:1000 with fresh Mueller-Hinton broth. E. faecium and E. faecalis were prepared by diluting overnight cultures 1:333 and 1:666, respectively, with fresh Mueller-Hinton broth. A volume of 50 μL of the inocula was added to each well. […] The exact inocula were determined by applying 10 μL of 10-fold serial dilution of the bacterial suspensions on TSA. After overnight incubation at 35° C., colony forming units were manually counted.
(§4) Microtiter plates were incubated during 24 h at 35° C. and were read using a microtiterplate reader (Molecular Devices) at 650 nm as well as by visual observation using a microtiterplate reading mirror.

E. faecium A491 (Amp^R) = assay: Broth microdilution MIC (NCCLS); format: cell-based; details: Enterococcus faecium
Procedure: as §1, §2, §3, §4

[2] = tested on: S. aureus Col (Meth^R)(lac^−); assay: Broth microdilution MIC (NCCLS); format: cell-based; details: Staphylococcus aureus
Procedure: as §1, §2, §3, §4

[3] = tested on: S. aureus PC1 (Meth^S)(lac^+); assay: Broth microdilution MIC (NCCLS); format: cell-based; details: Staphylococcus aureus
Procedure: as §1, §2, §3, §4

E. faecalis ATCC 29212 = assay: Broth microdilution MIC (NCCLS); format: cell-based; details: Enterococcus faecalis, ATCC29212
Procedure: as §1, §2, §3, §4

S. aureus ATCC 29213 = assay: Broth microdilution MIC (NCCLS); format: cell-based; details: Staphylococcus aureus, ATCC29213; S. aureus ATCC 29213; Mueller-Hinton broth, 24 h at 35° C.; read-out: MIC
Procedure: as §1, §2, §3, §4

[4] = tested on: S. aureus ATCC 33593 (Meth^R); assay: Broth microdilution MIC (NCCLS); format: cell-based; details: Staphylococcus aureus, ATCC33593
Procedure: as §1, §2, §3, §4

[5] = tested on: S. aureus ATCC 13709 (Meth^S); assay: Broth microdilution MIC (NCCLS); format: cell-based; details: Staphylococcus aureus, ATCC13709, S. aureus ATCC 13709 (Meth^S); read-out: MIC
Procedure: as §1, §2, §3, §4

E. faecium ATCC 35667 = assay: Broth microdilution MIC (NCCLS); format: cell-based; details: Enterococcus faecium, ATCC35667
Procedure: as §1, §2, §3, §4

E. coli ATCC25992 = assay: Broth microdilution MIC (NCCLS); format: cell-based; details: Escherichia coli
Procedure: as §1, §2, §3, §4

[6] = tested on: S. aureus 76 (Meth^R)(lac^+); assay: Broth microdilution MIC (NCCLS); format: cell-based; details: Staphylococcus aureus
Procedure: as §1, §2, §3, §4

E. faecium VanA (Van^R) = assay: Broth microdilution MIC (NCCLS); format: cell-based; details: Enterococcus faecium
Procedure: as §1, §2, §3, §4

E. faecalis VanB (Van^R) = assay: Broth microdilution MIC (NCCLS); format: cell-based; details: Enterococcus faecalis
Procedure: as §1, §2, §3, §4

P. aeruginosa ATCC 27853 = assay: Broth microdilution MIC (NCCLS); format: cell-based; details: Pseudomonas aeruginosa, ATCC27853
Procedure: as §1, §2, §3, §4

[7] = tested on: S. aureus Spain #356 (Meth^R); assay: Broth microdilution MIC (NCCLS); format: cell-based; details: Staphylococcus aureus, 24 h
Procedure: as §1, §2, §3, §4

[8] = In vitro stability of compounds in rat serum; format: in vitro ADME; details: Table 2 data
Procedure: In general, compounds from the class of 7-acylamino-3-heteroarylthio-3-cephem carboxylic acids have higher chemical reactivity and lower stability towards chemical or enzymatic decomposition than most typical cephalosporins. […] Results shown in Table 2 represent percentage loss of the initial amount of cephalosporin compound upon 60 min incubation in rat serum.
Procedure for measuring degree of degradation of cephalosporin compounds in rat serum was as follows:
Fresh control rat serum (heparinized and stored frozen) is preincubated at 37° C. for 15 min in a shaking water bath. pH is measured using test strips. 25 μL of a 2 mg/mL solution cephalosporin compound (in water) of is then added to each matrix to make 1000 μL. Solutions were incubated at 37° C. 100 ul of solution was taken out at time=0, 15, 30, and 60 min post dose and added 200 μL 4% trichloroacetic acid, vortexed, and centrifuged for 10 min at 14,000 rpm in an Eppendorf microcentrifuge. 25 μL of each supernatant was injected onto HPLC. Experiment was repeated using 25 μL of a 0.2 mg/mL cephalosporin compound. Degradation is measured as the percentage of HPLC peak area at time t relative to peak area at time 0.
HPLC conditions: Beckman Ultrasphere C18 column. 5 u. 4.6 mm×25 cm. 1 mL/min of 95% 0.1 M ammonium acetate, pH 6, 5% ACN going to 75% buffer/organic over 20 min. UV monitored at 254 and 280 nm.

S. aureus ATCC29213 = assay: Human serum binding effect: MIC with and without human serum; format: cell-based, Staphylococcus aureus; details: 1:1 human serum:MHB
Procedure: The approximate measurement of the degree of binding of the compound to human serum proteins can be achieved by determination of the effect of the addition of human serum to the medium in which the MIC values against a selected bacterial strain is determined. The ratio of the MIC value obtained in presence of added human serum to the MIC value determined without serum addition was used as a measure of serum binding and the results of such determination are presented below in Table 2.
In addition to the standard MIC determination described above, the staphylococcal strain ATCC29213 is also tested in a ratio 1:1, human serum:MHB to obtain a preliminary estimate of the bioactivity of test compounds in serum: The assay was performed in Human Serum and Mueller-Hinton Broth (HSMHB) with a final bacterial inoculum of 1×10^6 CFU/mL (from an early-log phase culture) and a final volume of 100 μL. Control drugs, including imipenem, vancomycin, dicloxacillin, and new compounds were prepared in double-concentrated Mueller-Hinton broth at a concentration equivalent to 4-fold the desired final concentration. Dilution of compounds were prepared directly in the plates by serial 2-fold dilution in double-concentrated Mueller-Hinton using a multichannel pipette. Positive and negative growth controls were included in each plate. […] The inoculum was prepared by diluting the early log-phase (1 h) culture 1:100 with fresh double-concentrated Mueller-Hinton broth. A volume of 25 μL of the inoculum was added to each well. […] The exact inoculum was determined by applying 10 μl of 10-fold serial dilution of the bacterial suspension on TSA. After overnight incubation at 35° C., colony forming units were manually counted.

[9] = tested on: S. aureus ATCC 13709 (Smith diffuse); assay: Murine lethal bacteremic peritonitis (septicemia) efficacy; format: in vivo, mice; details: Staphylococcus aureus, ATCC13709, sc, read-out: Efficacy in murine septicemia % survival
Procedure: 10 mice/group were injected intraperitoneally with 2.98×10^7 cfu S. aureus ATCC 13709 (Smith diffuse) and treated at 0 and 2 hrs post-challenge with serial two-fold doses of new cephalosporin antibiotic, imipenem and vancomycin subcutaneously in order to determine the ED50. Male Swiss-Webster mice weighing originally 24.2-26.1 g were obtained from Charles Rivers Labs, Hollister, Calif. Mice were housed 10 per cage and given free access to water and mouse chow.
Staphylococcus aureus ATCC 13709 (Smith diffuse) was grown overnight at 37° C. in Brain-heart Infusion broth (BHIB). The following morning, it was subcultured to fresh BHIB and incubated for 4-5 h at 37° C. The log-phase growth cells were washed once with physiological saline and adjusted to the desired concentration by correlation of absorbency at OD 600 nm with predetermined plate counts (NCCLS, 1994). The cell suspension was mixed with an equal volume of sterile 14% hog-gastric mucin (2). Inoculum was kept in an ice bath until used (<1 h).
Mice were challenged via an injection of 0.5 mL bacterial suspension intraperitoneally. The bacterial challenge was 2.98×10^7 cfu/mouse.
Imipenem (Primaxin IV; Lot 7294A), vancomycin (Vancocin; Lot 8MU60W), and new cephalosporin antibiotic were prepared by serial two-fold dilutions to concentrations of 0.078-0.005 mg/mL, 1.2-0.075 mg/mL, 0.3-0.02 mg/mL, 0.3-0.02 mg/mL and 0.3-0.02 mg/mL respectively in sterile water (1). All antibiotics were administered subcutaneously in 0.1 mL volumes at 0 and 2 hours post-challenge. Concentrations of all compounds are based on the weight of the bioactive ingredients.
The 50% effective dose (ED50) was calculated by the probit method (3) utilizing a program entitled Probit (Nycomed-Salutar).

NCCSc1nccnc1SC1=C(C(=O)O)N2C(=O)C(NC(=O)/C(=N\O)c3cccc(N)n3)C2SC1 (stereo not shown) [Cmpd 7]
MIC [1]: 2 µg/mL (≈ 3.65 µM) | MIC (E. faecium A491 (Amp^R)): > 32 µg/mL | MIC [2]: 2 µg/mL (≈ 3.65 µM) | MIC [3]: 0.25 µg/mL (≈ 0.456 µM) | MIC (E. faecalis ATCC 29212): 2 µg/mL (≈ 3.65 µM) | MIC (S. aureus ATCC 29213): 0.25 µg/mL (≈ 0.456 µM) | MIC [4]: 2 µg/mL (≈ 3.65 µM) | MIC [5]: 0.25 µg/mL (≈ 0.456 µM) | MIC (E. faecium ATCC 35667): 8 µg/mL (≈ 14.6 µM) | MIC (E. coli ATCC25992): 4 µg/mL (≈ 7.29 µM) | MIC [6]: 2 µg/mL (≈ 3.65 µM) | MIC (E. faecium VanA (Van^R)): 8 µg/mL (≈ 14.6 µM) | MIC (E. faecalis VanB (Van^R)): 4 µg/mL (≈ 7.29 µM) | MIC (P. aeruginosa ATCC 27853): > 32 µg/mL | MIC [7]: 2 µg/mL (≈ 3.65 µM)

NCCSCc1ccncc1SC1=C(C(=O)O)N2C(=O)[C@@H](NC(=O)/C(=N\O)c3nsc(N)n3)[C@H]2SC1 [Cmpd 27, (7R)-7-[(Z)-2-(5-amino-1,2,4-thiadiazol-3-yl)-2-(hydroxyimino)acetamido]-3-[4-(2-aminoethylthiomethyl)pyrid-3-ylthio]-3-cephem-4-carboxylic acid]
MIC [5]: 0.25 µg/mL (≈ 0.44 µM) | stability of compounds in rat serum [8]: improved stability | Human serum binding effect (ratio of MIC value determined with and without human serum added) (S. aureus ATCC29213): 4

C[C@@H](O)[C@H]1C(=O)N2C(C(=O)O)=C(SCCN=CN)C[C@H]12 [Imipenem, reference compound]
responders at 0.039 mg/kg ([9]; dose 0.039 mg/kg s.c. at 0 and 2 h post-challenge): 20% | responders at 0.078 mg/kg ([9]; dose 0.078 mg/kg s.c. at 0 and 2 h post-challenge): 40% | responders at 0.156 mg/kg ([9]; dose 0.156 mg/kg s.c. at 0 and 2 h post-challenge): 100% | responders at 0.312 mg/kg ([9]; dose 0.312 mg/kg s.c. at 0 and 2 h post-challenge): 100% | responders at 0.625 mg/kg ([9]; dose 0.625 mg/kg s.c. at 0 and 2 h post-challenge): 100% | MIC [5]: 0.008 µg/mL (≈ 0.0267 µM) | Human serum binding effect (ratio of MIC value determined with and without human serum added) (S. aureus ATCC29213): 2
